Reference: patent US6107070A, “Human manganese superoxide dismutase proteins” (University of Florida, priority 1998, dated 2000)
Substitutions are numbered along the chain they refer to. Read-outs that look alike come from different tables or passages of the source.

Legend:
[1] = target: T1, human manganese superoxide dismutase (hMn SOD) variant H30N (His 30 replaced by Asn) (Homo sapiens, UniProt P04179, H54N); test: Disproportionation of superoxide by H30N hMnSOD, stopped-flow, 20° C.; assay type: biochemical; conditions: pH 9.6, 20° C.
T1 construct: as a mature protein tagged with an extra Met at the amino terminus; made in house
T1 sequence (P04179 25-222 H54N): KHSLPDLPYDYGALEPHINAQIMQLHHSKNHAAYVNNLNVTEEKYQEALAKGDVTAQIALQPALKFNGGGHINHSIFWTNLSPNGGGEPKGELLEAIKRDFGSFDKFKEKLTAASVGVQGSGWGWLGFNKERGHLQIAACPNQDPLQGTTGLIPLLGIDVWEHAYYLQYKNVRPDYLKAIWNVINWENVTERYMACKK
Experimental: (§1) Experiments were based on the stabilization of KO2 in aprotic solvent and the subsequent large dilution of this solution by an aqueous solution of enzyme in a stopped-flow apparatus, as described by McClune and Fee (1978). KO2 was dissolved in a mixture of dimethyl sulfoxide and […] (2:1 by volume; Aldrich, spectrophotometric grade) with solubility of KO2 enhanced with 18-crown-6 (Valentine and Curtis, 1975). The stopped-flow spectrophotometer (Kinetic Instruments, Ann Arbor, Mich.) was capable of efficient mixing of this solution with an acqueous solution of enzyme in buffer with a dead time between 1.5 and 2.0 ms. One drive syringe (capacity 50 μl) contained the aprotic solution of O2. This was diluted fifty-fold by the contents of a second syringe (capacity 2.5 ml) which contained enzyme, EDTA, and buffer. The decay of superoxide in initial velocity experiments and progress curves was monitored by its absorption at 250 to 300 nm. Stopped-flow experiments were carried out at […]. Four or more kinetic traces were averaged to reduce noise. Steady-state parameters were obtained by least-squares analysis of such data (Leatherbarrow (1987) "Enzfitter: a nonlinear regression data analysis program for the IBM PC" Elsevier BIOSOFT, Cambridge).
(§2) In the present study, several novel hMnSOD proteins containing substitutions of His 30 (referring to the amino acid sequence of SEQ ID NO:2) were prepared by PCR site directed mutagenesis and purified by column chromatography, as described in the Materials and Methods section above, and as also described by Hsu et al. (1996) J. Biol. Chem. 271: 1768; and Hsieh et al. (1998) Biochemistry 37: 4731. In particular, His 30 was substituted with each of Ala, Asn, Ser and Gln. The resulting novel hMnSOD proteins containing a His 30 substitution were then assayed for enzymatic activity and product inhibition at 20° C. by measuring the absorbance of superoxide at 250 nm using stopped-flow spectrophotometry, as described above in the Materials and Methods section. […]

[2] = target: T2, human manganese superoxide dismutase (hMn SOD) variant H30S (His 30 replaced by Ser) (Homo sapiens, UniProt P04179, H54S); test: Disproportionation of superoxide by H30S hMnSOD, stopped-flow, 20° C.; assay type: biochemical; conditions: pH 9.6, 20° C.
T2 construct: as a mature protein tagged with an extra Met at the amino terminus; made in house
T2 sequence (P04179 25-222 H54S): T1 sequence (P04179 25-222 H54N) with N30S
Experimental: as §1, §2

[3] = target: T3, human manganese superoxide dismutase (hMn SOD), wild type, SEQ ID NO:2 (Homo sapiens, UniProt P04179); conditions: cited from earlier work
T3 construct: where it is then cleaved off leaving the mature protein
T3 sequence (P04179 25-222): T1 sequence (P04179 25-222 H54N) with N30H

[4] = target: T4, human manganese superoxide dismutase (hMn SOD) variant Q143N (Gln 143 replaced by Asn), SEQ ID NO:3 (Homo sapiens, UniProt P04179, Q167N); test: Decay of superoxide catalyzed by Q143N hMnSOD, pulse radiolysis; assay type: biochemical; conditions: FIG. 1; first-order fit, 35 μM enzyme, pH 9.6, 20° C.
T4 construct: as a mature protein tagged with an extra Met at the amino terminus; made in house; host or cells: E. coli QC774 (SodA/SodB mutant), pTrc99A
T4 sequence (P04179 25-222 Q167N): T1 sequence (P04179 25-222 H54N) with N30H, Q143N
Experimental: The solutions contained 0.5 μM wild-type MnSOD or 35 μM Q143N hMnSOD and 50 μM EDTA, 10 mM sodium formate, and 2.0 mM sodium pyrophosphate and pH 9.6 and 20° C. The solid line for Q143N hMnSOD is least-squares fit to a first-order process corresponding to Kcat /Km =1×10^6 M^-1 s^-1.
Experiments were carried out at the Center for Fast Kinetics Research at the University of Texas at Austin using a 4-Mev van der Graaff accelerator. A single high-dose electron pulse was used to generate superoxide radical anions from oxygen in acqueous solutions containing 10 mM sodium formate as hydroxyl radical scavenger (Schwartz, 1981) and 50 μM EDTA in addition to buffer and enzyme. All pulse radiolysis experiments were carried out at 20 ° C. The dismutation of O2^- was followed spectrophotometrically from its absorbance at 250 nm (ε=2000M^1 cm^1, Rabani and Nielson, 1969) with a path length of 2.5 cm. Progress curves for each set of 6 to 9 experiments were averaged. Exposure to ultraviolet radiation was minimized by opening a mechanical shutter a fraction of a second before each pulse.

[5] = Table 1, pulse radiolysis, 20° C., pH 9.6 (Hsu et al., 1996)
[6] = Table 2, KINSIM fit of FIG. 8 scheme to pulse radiolysis data, 20° C., pH 9.6
[7] = Table 3, KINSIM fit to pulse radiolysis data, 20° C., pH 9.6

## [O]O [superoxide]
[1]; Table 4
  kcat: 2.9 ms^.1
  kcat /Km: 91 μM^.1 S^.1
[1]; Table 5
  ko /[E] (rate constant for the zero-order region of catalysis): 1,300 S^.1
[2]; Table 4
  kcat: 1.8 ms^.1
  kcat /Km: 170 μM^.1 S^.1
[2]; Table 5
  ko /[E] (rate constant for the zero-order region of catalysis): 1,000 S^.1
[3]; [5]
  kcat: 40 ms^-1
  kcat /km: 8e+08 M⁻¹ s⁻¹
[3]; [6]
  k1: 2e+09 M⁻¹ s⁻¹
  k3: 2e+09 M⁻¹ s⁻¹
  k4: 80000 s⁻¹
  k-1: 20000 s⁻¹
  k-3: 20000 s⁻¹
  k-4: 300 M⁻¹ s⁻¹
[3]; Table 2, KINSIM fit, dead-end complex, 20° C., pH 9.6
  k-5: 130 s⁻¹
[3]; Table 2, KINSIM fit, formation of dead-end complex, 20° C., pH 9.6
  k5: 20000 s⁻¹
[3]; [7]
  k1: 20000 s⁻¹
  k3: 20000 s⁻¹
  k4: 300 M⁻¹ s⁻¹
  k5: 130 s⁻¹
  k-1: 2e+09 M⁻¹ s⁻¹
  k-3: 2e+09 M⁻¹ s⁻¹
  k-4: 80000 s⁻¹
  k-5: 2 × 10^4
[3]; Tables 2 and 3, KINSIM fit of FIG. 8 scheme to pulse radiolysis data, 20° C., pH 9.6
  k2: 80000 s⁻¹
[3]; approximate value
  kcat /km (diffusion controlled): ~10^9 M^-1 s^-1
[3]; pH 9.6, 20° C. (Hsu et al., 1996)
  kcat /Km: 8e+08 M⁻¹ s⁻¹
[4]
  kcat /Km: 1e+06 M⁻¹ s⁻¹
